In patent publication US20210255184A1, “Biosensor Device and Methods” (The New Zealand Institute for Plant and Food Research …, priority 2018, published 2021):

Biological target: T1, Or22a (Drosophila melanogaster, UniProt P81909)
T1 construct: his-tag; made in house; host or cells: baculovirus-infected Sf9 cells
T1 sequence (P81909 1-397): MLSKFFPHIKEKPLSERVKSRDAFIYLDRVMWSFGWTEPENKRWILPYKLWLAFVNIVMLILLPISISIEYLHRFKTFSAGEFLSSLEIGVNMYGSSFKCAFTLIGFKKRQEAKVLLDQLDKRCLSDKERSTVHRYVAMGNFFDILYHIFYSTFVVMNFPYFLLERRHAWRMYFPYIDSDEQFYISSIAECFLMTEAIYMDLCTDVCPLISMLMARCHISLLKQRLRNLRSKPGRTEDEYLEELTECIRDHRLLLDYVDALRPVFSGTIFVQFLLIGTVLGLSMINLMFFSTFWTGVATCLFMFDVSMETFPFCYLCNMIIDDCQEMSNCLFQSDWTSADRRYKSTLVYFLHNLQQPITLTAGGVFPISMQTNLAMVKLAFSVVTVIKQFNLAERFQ
Test: EIS sensor, Or22a liposomes on gold electrode
Assay type: biochemical
Procedure: Prior to their use, liposomes were defrosted on ice and then destabilized by incubating with 0.2% CHAPS for 15 min at room temperature. Then 200 μg of purified odorant receptor^28 was added to 1 mg of liposomes and rotated at 10 rpm for 1 h at room temperature. Excess detergent was removed by four additions of 25 mg of Bio-Beads SM-2 (Bio-Rad, USA) and incubation at 4° C. for 30 min, 2 h, overnight and a further 2 h respectively. The Bio-Beads were removed after each incubation period. The OrX or OrX/Orco integrated liposomes were pelleted by centrifugation at 100,000 g for 1 h, and were resuspended in 500 μL of rehydration buffer. Integration of OrXs and Orco into liposomes was assessed by density gradient ultracentrifugation (DGU) using Accudenz (Accurate Chemical & Scientific Corporation, USA). The integrated liposomes were brought to 40% Accudenz by the addition of an equal volume of 80% Accudenz solution, placed at the bottom of an ultra-centrifugation tube, and overlaid with 30% Accudenz solution, and DGU buffer (25 mM HEPES pH 7.5, 100 mM NaCl, 10% glycerol). The sample was then centrifuged at 100,000 g for 4 h at 4° C. Liposomes will float to the top of the gradient after Accudenz DGU due to their low density.
2 mM MHA was prepared by dissolving 1.36 μl of MHA in 5 ml ethanol (AR grade). The cleaned electrodes were immersed into MHA solution and incubated overnight. The next day, all the electrodes were washed with ethanol and deionised water thoroughly in order to remove the unreacted acid. A 2:1 mol:mol ratio of EDC:NHS (100 mM EDC, 50 mM NHS) was prepared in 2 ml PBS (pH=6.5) solution. Then, the electrodes were covered in 100 μl of this solution at 28° C. for an hour to activate the carboxylic (COOH) groups of the MHA.
PBS solution was prepared by immersing one tablet of PBS in 200 ml of milli-Q water (according to manufacturers instructions) and filtered using 0.2-μm syringe filter. The pH of the prepared buffer solution was measured with a pH meter. OrX liposomes or OrX/Orco liposomes were diluted 100 fold in PBS buffer solution (pH=7.4) and the COOH-activated electrodes were incubated in that buffer solution at room temperature for one hour. Then, the electrodes were washed extensively with PBS buffer solution to wash out any unbound liposomes.
PBS (pH=7.4) was used as an electrolyte to conduct electrochemical measurements. PBS buffer was degassed for about 30 minutes prior to electrochemical measurements. Odorant solutions of concentration ranging from 1 aM to 1 μM were prepared by sequential dilution in PBS solution containing 1% DMSO. OR immobilized electrodes were incubated in relevant odorant solution for ˜30 minutes each and washed gently with PBS before EIS measurements.
EIS measurements were done in a 3 electrode cell containing Ag/AgCl (3 M NaCl, 0.209 V vs. SHE) reference electrode, coiled platinum wire as a counter electrode and the gold disk as a working electrode at a fixed voltage of −0.7 using PalmSens potentiostat. Degassed PBS was used as an electrolyte.
EIS measurements were performed on gold electrodes functionalised with OrX liposomes (either Or10a or Or22a), OrX/Orco liposomes, or empty liposomes prior to and after target ligand or control ligand incubation with increasing concentrations (1 aM to 100 μM). Dose response curves were obtained by defining sensor response as −(ΔRp/R^op) versus log[C(Ligand)]. FIG. 4a presents the EIS response in terms of Nyquist plot for the Or10a liposome functionalized sensors when exposed to a solution containing one of the known target ligands of Or10a, methyl salicylate, at various concentrations. […] The dose response curve (FIG. 4b) was obtained by plotting the change in polarization resistance −(ΔRp/R^op) versus log[conc(Ligand)], as the sensor response. Here, Rp is the polarization resistance after Or10a liposome-target interaction and R^op is the polarization resistance before Or10a liposome-target interaction.

SMILES	sensor response to control ligand (EIS dose response)	limit of detection (LOD) (EIS dose response, ligand 1 aM to 100 μM)	EC50 (Table 1, approximate)	Sensitivity limit (Table 1, * estimated visually from dose response graph)	Detection Range (Table 3)	EC50 (Table 3, fitted dose response)
COC(=O)c1ccccc1O [methyl salicylate]	negligible response	–	–	–	–	–
CCCCCC(=O)OC [methyl hexanoate]	–	1 fM	~1 pM	~10^−15 M*	10^−15 to 10^−5 M	1.1 pM
